The numbers were not newly measured in patent US20150276574A1, “CELL ANALYSIS METHOD” (SYSMEX CORPORATION, priority 2014, published 2015), which cites them from elsewhere.

Settings in one series: not given
For the compound `CC(C)=CC(=O)O` [3-methylcrotonic acid], the “Solubility in 100 g of water at 20° C.” value is at least 2 g.

Staying with this series, now noted: 100 g of water, 20° C.
With `CCC(O)C(=O)O` (centres unmarked) [2-hydroxybutyric acid], the “Solubility in 100 g of water at 20° C.” value was at least 5 g.
For the compound `CC1=CC(=O)OC1=O` [citraconic anhydride], the “Solubility in 100 g of water at 20° C.” value is reported as at least 10 g.
As to `NC(=O)NCCC[C@H](N)C(=O)O` [citrulline], the “Solubility in 100 g of water at 20° C.” value is listed as 20 g.
As to `O=C(O)CCCC(=O)O` [glutaric acid], the “Solubility in 100 g of water at 20° C.” value is 43 g.
For `O=C(O)/C=C\C(=O)O` [maleic acid], the “Solubility in 100 g of water at 20° C.” value is 44 g.
In the case of `O=C(O)CC(O)C(=O)O` (centres unmarked) [malic acid], the “Solubility in 100 g of water at 20° C.” value is recorded as 5 g.
Consider aminobutanoic acid, for which the “Solubility in 100 g of water at 20° C.” value was at least 5 g.
